According to ChEMBL document CHEMBL5303711, “ECBD screening data for assay EOS300108” (2023):
Where a name gives a salt, the structure may show the parent alone. Activity calls are given as the source filed them. The rule behind the calls is not given here.

Assay: Cytotoxicity activity against human HepG2 cells assessed by CellTiter-Glo luminescent cell viability assay.
Format: toxicity, cell-based
Parameters: assay stage confirmatory assay, source tissue liver
Conditions: HepG2 cells, read-out: IC50 relative
In the case of `CN1C[C@H](C(=O)N[C@]2(C)O[C@@]3(O)[C@@H]4CCCN4C(=O)[C@H](Cc4ccccc4)N3C2=O)C[C@@H]2c3cccc4[nH]cc(c34)C[C@H]21` [DIHYDROERGOTAMINE MESYLATE], the CC50 is reported as 12.9 µM (active). In the case of `Cc1cccc2c3c(ccc12)C1=C(C(=O)C3=O)[C@@H](C)CO1` [DIHYDROTANSHINONE I], the CC50 is reported as 1.8 µM (active). With `Cc1ccc(C)c(-c2cc(C(F)(F)F)nn2-c2ccc(S(N)(=O)=O)cc2)c1` [DIMETHYL CELECOXIB] the CC50 was 18.1 µM (inactive). For `C[C@@H]1CC[C@@]2(OC1)O[C@H]1C[C@H]3[C@@H]4CC=C5C[C@@H](O[C@@H]6O[C@H](CO)[C@@H](O[C@@H]7O[C@@H](C)[C@H](O)[C@@H](O)[C@H]7O)[C@H](O)[C@H]6O[C@@H]6O[C@@H](C)[C@H](O)[C@@H](O)[C@H]6O)CC[C@]5(C)[C@H]4CC[C@]3(C)[C@H]1[C@@H]2C` [DIOSCIN], the CC50 was 0.7 µM (active). In the case of `c1ccc2c(c1)[I+]c1ccccc1-2` [DIPHENYLENEIODONIUM CHLORIDE], the CC50 is reported as 0.2 µM (active). For `COc1cc2c(O)c3c(c(-c4ccc5c(c4)OCO5)c2cc1OC)C(=O)OC3` [DIPHYLLIN], the CC50 was 1.4 µM (active). With `CCN(CC)C(=S)S` [DITIOCARB SODIUM] the CC50 was 6.6 µM (active). With `COc1cc2nc(N3CCN(C(=O)C4COc5ccccc5O4)CC3)nc(N)c2cc1OC` (stereo not drawn) [DOXAZOSIN MESYLATE] the CC50 was 13.5 µM (inactive). For `CN1CCN(Cc2ccc(Nc3ncc(Cl)c(Nc4ccccc4S(=O)(=O)N(C)C)n3)cc2)CC1` [DUBERMATINIB], the CC50 was 11.2 µM (active). With `CNCC[C@H](Oc1cccc2ccccc12)c1cccs1` [DULOXETINE HYDROCHLORIDE] the CC50 was 4.3 µM (active). For `CCCCOc1ccc(C(=O)CCN2CCCCC2)cc1` [DYCLONINE HYDROCHLORIDE], the CC50 was 9.9 µM (active). With `O=c1c2ccccc2[se]n1-c1ccccc1` [EBSELEN] the CC50 was 28.4 µM (inactive). For `CC1(C)CC=C(c2nc(C3CC(C)(C)OC(C)(C)C3)ccc2NC(=O)c2nc(C#N)c[nH]2)CC1` [EDICOTINIB], the CC50 was 2.8 µM (active). In the case of `OC(CN1CCC(Cc2ccc(F)cc2)CC1)c1ccc(Cl)cc1` (stereo not drawn) [ELIPRODIL], the CC50 is reported as 50 µM (inactive). With `CC[C@H]1CN2CCc3cc(OC)c(OC)cc3[C@@H]2C[C@@H]1C[C@H]1NCCc2cc(OC)c(OC)cc21` [EMETINE HYDROCHLORIDE] the CC50 was 0.2 µM (active). For `COC(=O)N[C@@H](C)CNc1nccc(-c2cn(C(C)C)nc2-c2cc(Cl)cc(NS(C)(=O)=O)c2F)n1` [ENCORAFENIB], the CC50 was 0.9 µM (active). For `CCOc1ccccc1-n1c(C(C)N2CCN(C(=O)COc3ccc(Cl)cc3)CC2)nc2ccccc2c1=O` (stereo not drawn) [ERASTIN], the CC50 was 1.8 µM (active). In the case of `COc1cc(OC)cc(N(CCNC(C)C)c2ccc3ncc(-c4cnn(C)c4)nc3c2)c1` [ERDAFITINIB], the CC50 is reported as 3.9 µM (active). For `C#Cc1cccc(Nc2ncnc3cc(OCCOC)c(OCCOC)cc23)c1` [ERLOTINIB HYDROCHLORIDE], the CC50 was 3.4 µM (inactive). In the case of `Cc1cc(C#N)cc(C)c1Oc1nc(Nc2ccc(C#N)cc2)nc(N)c1Br` [ETRAVIRINE], the CC50 is reported as 50 µM (inactive). With `COc1ccc2cc1Oc1ccc(cc1)C[C@H]1c3cc(c(OC)cc3CCN1C)Oc1c(OC)c(OC)cc3c1[C@H](C2)N(C)CC3` [FANCHININ] the CC50 was 1.4 µM (active). With `Cc1cnc(Nc2ccc(OCCN3CCCC3)cc2)nc1Nc1cccc(S(=O)(=O)NC(C)(C)C)c1` [FEDRATINIB] the CC50 was 1.1 µM (active). In the case of `CC1=C(/C=C/C(C)=C/C=C/C(C)=C/C(=O)Nc2ccc(O)cc2)C(C)(C)CCC1` [FENRETINIDE], the CC50 is reported as 10.8 µM (active). With `CON(C)C(=O)N1N=C(c2cc(F)ccc2F)S[C@@]1(CCCN)c1ccccc1` [FILANESIB] the CC50 was 11 µM (active). For `O=C(Nc1nc2cccc(-c3ccc(CN4CCS(=O)(=O)CC4)cc3)n2n1)C1CC1` [FILGOTINIB], the CC50 was 6.4 µM (active). For `COc1ccc(-c2nc(N3CCOCC3)c3sc(CN(C)c4ncc(C(=O)NO)cn4)cc3n2)cn1` [FIMEPINOSTAT], the CC50 was < 0.1 µM (active). With `CCCCCCCCc1ccc(CCC(N)(CO)CO)cc1` [FINGOLIMOD HYDROCHLORIDE] the CC50 was 1.4 µM (active). With `Cc1ncc(NC(=O)c2ccc(CN3CCN(C)CC3)c(C(F)(F)F)c2)cc1Nc1nccc(-c2cccnc2)n1` [FLUMATINIB] the CC50 was 3.3 µM (active). With `Fc1ccc(C(c2ccc(F)cc2)N2CCN(C/C=C/c3ccccc3)CC2)cc1` [FLUNARIZINE HYDROCHLORIDE] the CC50 was 14.6 µM (inactive). With `CNCCC(Oc1ccc(C(F)(F)F)cc1)c1ccccc1` (stereo not drawn) [FLUOXETINE HYDROCHLORIDE] the CC50 was 6.6 µM (active). In the case of `OCCN1CCN(CCCN2c3ccccc3Sc3ccc(C(F)(F)F)cc32)CC1` [FLUPHENAZINE HYDROCHLORIDE], the CC50 is reported as 3.2 µM (active). For `C[C@]12CC[C@H](O)CC1=CC[C@@H]1[C@@H]2CC[C@]2(C)C(n3cnc4ccccc43)=CC[C@@H]12` [GALETERONE], the CC50 was 10.4 µM (active). In the case of `O=c1cc(-c2ccc(O)c(O)c2)oc2cc(O[C@@H]3O[C@H](CO)[C@@H](O)[C@H](O)[C@H]3O)cc(O)c12` [GALUTEOLIN], the CC50 is reported as 5.7 µM (inactive). In the case of `CC(C)c1cc(-c2n[nH]c(=O)n2-c2ccc3c(ccn3C)c2)c(O)cc1O` [GANETESPIB], the CC50 is reported as < 0.1 µM (active). In the case of `O=C(NOCCO)c1ccc2cncn2c1Nc1ccc(I)cc1F` [GDC-0623], the CC50 is reported as < 0.1 µM (active). For `CN(C)C1CCN(C(=O)c2ccc(NC(=O)Nc3ccc(-c4nc(N5CCOCC5)nc(N5CCOCC5)n4)cc3)cc2)CC1` [GEDATOLISIB], the CC50 was 1.7 µM (active). With `CN(C)c1ccc(C(=C2C=CC(=[N+](C)C)C=C2)c2ccc(N(C)C)cc2)cc1` [GENTIAN VIOLET] the CC50 was 14.6 µM (inactive). For `CN(C)CCCn1cc(C2=C(c3c[nH]c4ccccc34)C(=O)NC2=O)c2ccccc21` [GF-109203], the CC50 was 4.8 µM (active). In the case of `CC1(C)C=Cc2c(ccc3c2OC[C@@H](c2ccc(O)cc2O)C3)O1` [GLABRIDIN], the CC50 is reported as 12.8 µM (active). For `Cc1cc2c(C(C)C)c(O)c(O)c(C=O)c2c(O)c1-c1c(C)cc2c(C(C)C)c(O)c(O)c(C=O)c2c1O` [GOSSYPOL], the CC50 was 6.4 µM (active). In the case of `CC[C@H](C)n1cc(C)c2c(C(=O)NCc3c(C)cc(C)[nH]c3=O)cc(-c3ccc(N4CCNCC4)nc3)cc21` [GSK2816126], the CC50 is reported as 4.9 µM (active). In the case of `CCn1c(-c2nonc2N)nc2cnc(Oc3cccc(NC(=O)c4ccc(OCCN5CCOCC5)cc4)c3)cc21` [GSK-269962A], the CC50 is reported as 3 µM (active). With `C[C@@H](Oc1cc(-n2cnc3ccc(CN4CCN(C)CC4)cc32)sc1C(N)=O)c1ccccc1C(F)(F)F` [GSK-461364] the CC50 was 3.7 µM (active). With `CCn1cc(-c2ccnc3[nH]c(-c4cccc(CN(C)C)c4)cc23)c(-c2ccc(NC(=O)N(C)C)cc2)n1` [GSK-1070916] the CC50 was 2.8 µM (active). In the case of `CN(c1ccc(NC(=O)Nc2ccc(OC(F)(F)F)cc2)cc1)c1ccnc(Nc2cccc(S(N)(=O)=O)c2)n1` [GW806742X], the CC50 is reported as 0.9 µM (active). With `O=C(CC1NCCCC1O)Cn1cnc2cc(Br)c(Cl)cc2c1=O` (stereo not drawn) [HALOFUGINONE] the CC50 was 0.1 µM (active). For `O=C(CCCN1CCC(O)(c2ccc(Cl)cc2)CC1)c1ccc(F)cc1` [HALOPERIDOL], the CC50 was 9.6 µM (active). With `CCS(=O)(=O)Nc1ccc2c(c1)/C(=C(/Nc1ccc(CN3CCCCC3)cc1)c1ccccc1)C(=O)N2` [HESPERADIN] the CC50 was 0.2 µM (active). For `Oc1c(Cl)cc(Cl)c(Cl)c1Cc1c(O)c(Cl)cc(Cl)c1Cl` [HEXACHLOROPHENE], the CC50 was 5.2 µM (active). With `CC(=O)[C@]1(O)Cc2c(O)c3c(c(O)c2[C@@H](O[C@H]2C[C@H](N)[C@H](O)[C@H](C)O2)C1)C(=O)c1ccccc1C3=O` [IDARUBICIN HYDROCHLORIDE] the CC50 was 0.2 µM (active). For `Nc1ncc(-c2cnn(CCO)c2)c2scc(-c3ccc(NC(=O)Nc4cccc(F)c4)cc3)c12` [ILORASERTIB], the CC50 was 2.8 µM (active). For `Cc1ccc(NC(=O)c2ccc(CN3CCN(C)CC3)cc2)cc1Nc1nccc(-c2cccnc2)n1` [IMATINIB], the CC50 was 7.3 µM (active). With `CCc1cc2c(cc1CC)CC(NC[C@H](O)c1ccc(O)c3[nH]c(=O)ccc13)C2` [INDACATEROL] the CC50 was 9.1 µM (active). In the case of `CCN1CCN(c2ccc(Nc3cc(N(C)C(=O)Nc4c(Cl)c(OC)cc(OC)c4Cl)ncn3)cc2)CC1` [INFIGRATINIB], the CC50 is reported as 3.3 µM (active). In the case of `Nc1ncnc2c1c(I)cn2[C@@H]1O[C@H](CO)[C@@H](O)[C@H]1O` [IODOTUBERCIDIN], the CC50 is reported as 0.4 µM (active). In the case of `CC(C)NC[C@@H](C(=O)N1CCN(c2ncnc3c2[C@H](C)C[C@H]3O)CC1)c1ccc(Cl)cc1` [IPATASERTIB], the CC50 is reported as 13 µM (active). In the case of `CCc1c2c(nc3ccc(OC(=O)N4CCC(N5CCCCC5)CC4)cc13)-c1cc3c(c(=O)n1C2)COC(=O)[C@]3(O)CC` [IRINOTECAN], the CC50 is reported as 10.1 µM (active). For `Cc1ccc(C(=O)N(CCCN)[C@@H](c2nc3cc(Cl)ccc3c(=O)n2Cc2ccccc2)C(C)C)cc1` [ISPINESIB], the CC50 was 5.5 µM (active). With `CCC(C)n1ncn(-c2ccc(N3CCN(c4ccc(OCC5COC(Cn6cncn6)(c6ccc(Cl)cc6Cl)O5)cc4)CC3)cc2)c1=O` (stereo not drawn) [ITRACONAZOLE] the CC50 was 4.9 µM (active). For `CC(C)(C)c1cc(C(C)(C)C)c(NC(=O)c2c[nH]c3ccccc3c2=O)cc1O` [IVACAFTOR], the CC50 was 7.5 µM (active). In the case of `CC(C)C[C@H](NC(=O)CNC(=O)c1cc(Cl)ccc1Cl)B(O)O` [IXAZOMIB], the CC50 is reported as 0.1 µM (active). With `O=C(Nc1cnccc1Cl)N1CCN(Cc2ccc3c(c2)OC(F)(F)O3)CC1` [JNJ-42165279] the CC50 was 11.9 µM (inactive). With `CO/N=C(/C(=O)OC)c1ccccc1COc1ccccc1C` [KRESOXIM-METHYL] the CC50 was 12.5 µM (active). For `N#Cc1ccc(Cn2cncc2CN2CCN(c3cccc(Cl)c3)C(=O)C2)cc1` [L-778123], the CC50 was 1.1 µM (active). With `CC1(C)CCC2=C(O1)c1ccccc1C(=O)C2=O` [LAPACHONE] the CC50 was 2.3 µM (active). With `CN[C@@H](C)C(=O)N[C@H](C(=O)N1CCC[C@H]1c1nc(C(=O)c2ccc(F)cc2)cs1)C1CCCCC1` [LCL-161] the CC50 was 6.8 µM (active). With `CC(C)n1c(/C=C/[C@@H](O)C[C@@H](O)CC(=O)O)c(-c2ccc(F)cc2)c2ccccc21` [LESCOL] the CC50 was 7.4 µM (active). In the case of `CC(=O)N1CCN(c2ccc(OC[C@@H]3CO[C@@](Cn4ccnc4)(c4ccc(Cl)cc4Cl)O3)cc2)CC1` [LEVOKETOCONAZOLE], the CC50 is reported as 11.6 µM (active).
